The target of test [1] is T1, US28 (Human cytomegalovirus, UniProt P69332). As to the kind of experiment: Inhibition of binding of native chemokine ligands (fractalkine, eotaxin) to US28. Conditions: native chemokine ligands such as fractalkine and eotaxin, among others. Details: species or system human CMV (HCMV).
A further test deals with chemokine receptors. The test can be described thus: Binding specificity among chemokine receptors tested.
Test [2] concerns the target T1, US28. As to the kind of experiment: Binding affinity of fractalkine to US28. Details: species or system human CMV (HCMV). Conditions: read-out: K1 (affinity of binding to US28).

T1 sequence (P69332 whole entry): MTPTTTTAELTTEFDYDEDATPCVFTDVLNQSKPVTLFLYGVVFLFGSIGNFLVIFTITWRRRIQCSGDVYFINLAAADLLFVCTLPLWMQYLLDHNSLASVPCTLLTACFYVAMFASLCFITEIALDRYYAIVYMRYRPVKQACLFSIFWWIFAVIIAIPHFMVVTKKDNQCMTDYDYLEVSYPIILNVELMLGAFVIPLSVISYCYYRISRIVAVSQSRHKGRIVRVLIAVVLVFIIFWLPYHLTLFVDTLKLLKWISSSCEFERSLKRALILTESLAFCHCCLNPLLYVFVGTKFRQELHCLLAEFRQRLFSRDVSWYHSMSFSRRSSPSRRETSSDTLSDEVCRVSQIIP

Regarding `CCN1CCC[C@H]1CNC(=O)c1c(OC)ccc(I)c1O` [S(−)-IBZM, S(−)-3-Iodo-2-hydroxy-6-methoxy-N[(1-ethyl-2-pyrrolidinyl)methyl]benzamide], the “inhibition of the binding of native chemokine ligands to US28” value at US28 [1] is recorded as “effective inhibitor”. Further, the “specificity of binding to US28 among all chemokine receptors tested” value in the test with chemokine receptors was “bind specifically to US28”.

B1: fractalkine: the CX3C chemokine, expressed on certain endothelial cell surfaces and dendritic cells; native ligand of US28 (protein, UniProt P78423 25-397, looked up)
Fractalkine: QHHGVTKCNITCSKMTSKIPVALLIHYQQNQASCGKRAIILETRQHRLFCADPKEQWVKDAMQHLDRQAAALTRNGGTFEKQIGEVKPRTTPAAGGMDESVVLEPEATGESSSLEPTPSSQEAQRALGTSPELPTGVTGSSGTRLPPTPKAQDGGPVGTELFRVPPVSTAATWQSSAPHQPGPSLWAEAKTSEAPSTQDPSTQASTASSPAPEENAPSEGQRVWGQGQSPRPENSLEREEMGPVPAHTDAFQDWGPGSMAHVSVVPVSSEGTPSREPVASGSWTPKAEEPIHATMDPQRLGVLITPVPDAQAATRRQAVGLLAFLGLLFCLGVAMFTYQSLQGCPRKMAGEMAEGLRYIPRSCGSNSYVLVPV
B1: the Ki in the test with US28 [2] is roughly 0.05 nM.

The values are drawn from patent publication US20020182594A1, “Chemomagnetic retrieval of CMV and CMV infected cells” (priority 2001, published 2002).
